Assay: molar heat capacity at constant pressure
Conditions: 101.33 kPa, Crystal, Thermal relaxation technique

[Hf+4].[O-2].[O-2] [hafnium(IV) oxide]
Conditions	molar heat capacity at constant pressure [J/K/mol]
1.92 K	0.0006
2 K	0.00065
2.04 K	0.0007
2.19 K	0.0009
2.48 K	0.0011
2.8 K	0.0015
3.09 K	0.002
3.4 K	0.0027
3.77 K	0.0037
4.17 K	0.0048
4.63 K	0.0065
5 K	0.00802
5.17 K	0.0091
5.74 K	0.0118
6.4 K	0.0162
7.11 K	0.022
7.9 K	0.0304
8.79 K	0.0411
9.77 K	0.0569
10 K	0.061
10.87 K	0.0795
12.08 K	0.1132
13.43 K	0.1598
14.85 K	0.2256
16.63 K	0.3276
18.43 K	0.4834
20 K	0.63
20.37 K	0.6725
22.69 K	0.967
25.26 K	1.369
28.1 K	1.905
30 K	2.3
31.26 K	2.569
34.79 K	3.429
38.68 K	4.469
40 K	4.82
43 K	5.684
47.81 K	7.049
50 K	7.72
53.14 K	8.65
59.07 K	10.45
65.65 K	12.39
72.95 K	14.5
81.06 K	16.95
90.05 K	19.69
100 K	22.26
100.01 K	22.35
110.26 K	25.03
120.29 K	27.43
130.3 K	29.98
140.32 K	32.44
150 K	34.61
150.53 K	34.59
160.66 K	36.82
170.61 K	38.83
180.78 K	40.81
190.96 K	42.62
200 K	44.22
201.26 K	44.45
211.45 K	46.16
221.7 K	48.01
231.89 K	49.47
242.02 K	50.89
250 K	51.9
252.09 K	52.39
262.17 K	53.45
272.31 K	54.56
273.15 K	54.95
282.4 K	55.7
292.46 K	56.89
298.15 K	57.73
302.51 K	58.63

— the NIST ThermoML archive (doi:10.1016/j.jct.2011.02.002)
